According to PMC8924551, “Functional Characterization of a Flavone Synthase That Participates in a Kumquat Flavone Metabolon” (Frontiers in Plant Science, 2022):

Tested on: T1, FcFNSII-2
T1 construct: microsomes of Saccharomyces cerevisiae WAT11 co-expressing Arabidopsis ATR1 P450 reductase
Assay: yeast microsome assay, UPLC-Q-TOF-MS, Michaelis-Menten fit
Format: biochemical, Fortunella crassifolia
Conditions: 1 mM NADPH, 100 mM Tris/HCl pH 7.0, 30°C, 1 h; product apigenin

O=C1C[C@@H](c2ccc(O)cc2)Oc2cc(O)cc(O)c21 [naringenin]
Km: 3.77 µM
